Laboratory results as given in US6956040B2, “Oxazolidinone piperazinyl derivatives as potential antimicrobials” (Ranbaxy Laboratories Limited, priority 2001, dated 2005).
≈ marks a conversion by molar mass, not a printed value. Read-outs that look alike come from different tables or passages of the source.

Legend:
S. pyogenes 19615 = experiment: MIC, agar incorporation method; assay type: cell-based, Streptococcus pyogenes
Description: (§1) The compounds of the invention display antibacterial activity when tested by the agar incorporation method. The following minimum inhibitory concentrations (μg/ml) were obtained for representative compounds of the invention which are given below in the following tables.
(§2) • 1) S.aureus ATCC 25923—Staphylococus aureus ATCC 25923 • 2) MRSA 15187—Methicillin Resistant Staphylococcus aureus • 3) Ent. faecalis ATCC 29212—Enterococcus faecalis ATCC 29212 • 4) Ent. faecium 6A—Enterococcus faecium 6A Van®, Cipro® • 5) Strep. pne. ATCC 6303—Streptococcus pneumoniae ATCC 6303 • 6) Strep. pyog. ATCC 19615—Streptococcus pyogenes • 7) S. epidermidis—Staphylococcus epidermidis ATCC 12228
(§3) Briefly, the compounds were dissolved in DMSO and doubling dilution of the compounds were incorporated into Meuller Hilton agar before solidification. Inoculum was prepared by suspending 4 to 5 colonies into 5 ml of normal saline solution and adjusting the turbidity to 0.5 Macfarland turbidity standard tables (1.5×10^8 CFU/ml), after appropriate dilutions, 10^4 CFU/spot was transfered into the surface of dried plate and incubated for 18 hours (24 hours for MRSN studies). The concentration showing no growth of the inoculated culture was recorded as the MIC. Appropriate ATCC standard strains were simultaneously tested and result recorded only when the MIC's against standard antibiotics were within the acceptable range.

E. faecalis = experiment: Summary of in vitro activity (MIC) against E. faecalis; assay type: cell-based, Enterococcus faecalis
Method: as §1, §3

S. aureus = experiment: Summary of in vitro activity (MIC) against S. aureus; assay type: cell-based, Staphylococcus aureus
Method: as §1, §3

E. faecalis 29212 = experiment: MIC, agar incorporation method; assay type: cell-based, Enterococcus faecalis
Description: as §1, §2, §3

VRE 6A = experiment: MIC, agar incorporation method; assay type: cell-based, Enterococcus faecium
Description: as §1, §2, §3

G+ve = experiment: Summary of in vitro activity (MIC) against G+ve bacteria; assay type: cell-based
Method: as §1, §3

S. pneum AB 34 = experiment: MIC, agar incorporation method; assay type: cell-based, Streptococcus pneumoniae
Method: as §1, §3

[1] = Changes in MIC under different conditions: Agar MIC; assay type: cell-based; conditions: strain not given
Method: as §1, §3

S. pneumoniae = experiment: Summary of in vitro activity (MIC) against S. pneumoniae; assay type: cell-based, Streptococcus pneumoniae
Method: as §1, §3

S. pneum 6303 = experiment: MIC, agar incorporation method; assay type: cell-based, Streptococcus pneumoniae
Description: as §1, §2, §3

[2] = Changes in MIC under different conditions: Broth MIC; assay type: cell-based; conditions: strain not given
MRSA 562 [3] = experiment: MIC, agar incorporation method; assay type: cell-based, Staphylococcus aureus
Method: as §1, §3

MRSA 33 = experiment: MIC, agar incorporation method; assay type: cell-based, Staphylococcus aureus
Method: as §1, §3

MRSA 15187 = experiment: MIC, agar incorporation method; assay type: cell-based, Staphylococcus aureus
Description: as §1, §2, §3

S. aureus 25923 = experiment: MIC, agar incorporation method; assay type: cell-based, Staphylococcus aureus
Description: as §1, §2, §3

MRSA 562 [4] = experiment: In vivo activity against MRSA 562 (ED50); set-up: species or system Staphylococcus aureus
[5] = S. pyogenes 19615, agar incorporation
[6] = E. faecalis 29212, agar incorporation
[7] = S. pneum AB 34, agar incorporation
[8] = S. pneum 6303, agar incorporation
[9] = MRSA 562, agar incorporation, Table 1
[10] = S. aureus 25923, agar incorporation

Question: For CN[C@H](CC(C)C)C(=O)N[C@H]1C(=O)N[C@@H](CC(N)=O)C(=O)N[C@H]2C(=O)N[C@H]3C(=O)N[C@H](C(=O)N[C@H](C(=O)O)c4cc(O)cc(O)c4-c4cc3ccc4O)[C@H](O)c3ccc(c(Cl)c3)Oc3cc2cc(c3O[C@@H]2O[C@H](CO)[C@@H](O)[C@H](O)[C@H]2O[C@H]2C[C@](C)(N)[C@H](O)[C@H](C)O2)Oc2ccc(cc2Cl)[C@H]1O [Vancomycin, reference compound], which MIC (S. pyogenes 19615; Streptococcus pyogenes, 19615) is on record?
Answer: 0.5 µg/mL (≈ 0.345 µM)

Question: And the MIC50 (E. faecalis; Enterococcus faecalis)?
Answer: 16 µg/mL (≈ 11 µM)

Question: And the MIC90 (E. faecalis; Enterococcus faecalis)?
Answer: 16 µg/mL (≈ 11 µM)

Question: And the MIC (E. faecalis; Enterococcus faecalis, read-out: Geometric Mean of in vitro activity (MIC))?
Answer: 9.75 µg/mL (≈ 6.73 µM)

Question: And the MIC50 (S. aureus; Staphylococcus aureus)?
Answer: 1 µg/mL (≈ 0.69 µM)

Question: And the MIC90 (S. aureus; Staphylococcus aureus)?
Answer: 1 µg/mL (≈ 0.69 µM)

Question: What about the MIC (S. aureus; Staphylococcus aureus, read-out: Geometric Mean of in vitro activity (MIC)) of the same molecule?
Answer: 1 µg/mL (≈ 0.69 µM)

Question: What about the MIC (E. faecalis 29212; Enterococcus faecalis, 29212) of the same molecule?
Answer: 4 µg/mL (≈ 2.76 µM)

Question: And the MIC (VRE 6A; Enterococcus, VRE)?
Answer: > 16 µg/mL

Question: And the MIC50 (G+ve)?
Answer: 0.5 µg/mL (≈ 0.345 µM)

Question: What about the MIC90 (G+ve) of the same molecule?
Answer: 16 µg/mL (≈ 11 µM)

Question: And the MIC (G+ve; read-out: Geometric Mean of in vitro activity (MIC))?
Answer: 0.93 µg/mL (≈ 0.642 µM)

Question: And the MIC (S. pneum AB 34; Streptococcus pneumoniae, AB34)?
Answer: 0.25 µg/mL (≈ 0.173 µM)

Question: And the “Agar MIC” value [1]?
Answer: 1 µg/mL

Question: And the MIC50 (S. pneumoniae; Streptococcus pneumoniae)?
Answer: 0.5 µg/mL (≈ 0.345 µM)

Question: What about the MIC90 (S. pneumoniae; Streptococcus pneumoniae) of the same molecule?
Answer: 0.5 µg/mL (≈ 0.345 µM)

Question: What about the MIC (S. pneumoniae; Streptococcus pneumoniae, read-out: Geometric Mean of in vitro activity (MIC)) of the same molecule?
Answer: 0.39 µg/mL (≈ 0.269 µM)

Question: And the MIC (S. pneum 6303; Streptococcus pneumoniae, 6303)?
Answer: 0.5 µg/mL (≈ 0.345 µM)

Question: And the “Broth MIC +50% Sheep serum” value [2]?
Answer: 1 µg/mL

Question: And the “Broth MIC Normal MH broth” value [2]?
Answer: 1 µg/mL

Question: What about the “MIC” value (MRSA 562 [3]; MRSA 562, Table 5) of the same molecule?
Answer: 0.5 µg/mL (≈ 0.345 µM)

Question: And the MIC (MRSA 562 [3]; Staphylococcus aureus, MRSA)?
Answer: 0.5 µg/mL (≈ 0.345 µM)

Question: What about the MIC (MRSA 33; Staphylococcus aureus, MRSA) of the same molecule?
Answer: 0.5 µg/mL (≈ 0.345 µM)

Question: And the MIC (MRSA 15187; Staphylococcus aureus, MRSA)?
Answer: 0.5 µg/mL (≈ 0.345 µM)

Question: And the MIC (S. aureus 25923; Staphylococcus aureus, 25923)?
Answer: 1 µg/mL (≈ 0.69 µM)

Question: What does the source list for CC(=O)NC[C@H]1CN(c2ccc(N3CCN(Cc4ccc([N+](=O)[O-])o4)CC3)c(F)c2)C(=O)O1 [Compound No. 15, (S)-N-[[3-[3-fluoro-4-[N-1-[4-{2-furyl-(5-nitro)methyl}]piperazinyl]phenyl]-2-oxo-5-oxazolidinyl]methyl]acetamide]?
Answer: MIC (S. pyogenes 19615; [5]): 1 µg/mL (≈ 2.17 µM); Geometric Mean of in vitro activity (MIC) (E. faecalis; E. faecalis): 1.6 µg/mL; MIC50 (E. faecalis; E. faecalis, Number 7): 2 µg/mL (≈ 4.33 µM); MIC90 (E. faecalis; E. faecalis, Number 7): 2 µg/mL (≈ 4.33 µM); Geometric Mean of in vitro activity (MIC) (S. aureus; S. aureus): 1.63 µg/mL; MIC50 (S. aureus; S. aureus, Number 8): 2 µg/mL (≈ 4.33 µM); MIC90 (S. aureus; S. aureus, Number 8): 2 µg/mL (≈ 4.33 µM); ED50 (mg/kg body weight) PO (MRSA 562 [4]): 4.33 mg/kg body weight; MIC (E. faecalis 29212; [6]): 2 µg/mL (≈ 4.33 µM); MIC (VRE 6A; VRE 6A, agar incorporation): 1 µg/mL (≈ 2.17 µM); MIC50 (G+ve; G+ve, Number 49): 1 µg/mL (≈ 2.17 µM); MIC90 (G+ve; G+ve, Number 49): 2 µg/mL (≈ 4.33 µM); Geometric Mean of in vitro activity (MIC) (G+ve; Gram +ve): 1.08 µg/mL; MIC (S. pneum AB 34; [7]): 2 µg/mL (≈ 4.33 µM); Geometric Mean of in vitro activity (MIC) (S. pneumoniae; S. pneumoniae): 1.04 µg/mL; MIC50 (S. pneumoniae; S. pneumoniae, Number 19): 2 µg/mL (≈ 4.33 µM); MIC90 (S. pneumoniae; S. pneumoniae, Number 19): 4 µg/mL (≈ 8.67 µM); MIC (S. pneum 6303; [8]): 1 µg/mL (≈ 2.17 µM); MIC (MRSA 562 [3]; MRSA 562, Table 5): 2 µg/mL (≈ 4.33 µM); MIC (MRSA 562 [3]; [9]): 2 µg/mL (≈ 4.33 µM); MIC (MRSA 33; MRSA 33, agar incorporation): 2 µg/mL (≈ 4.33 µM); MIC (MRSA 15187; MRSA 15187, agar incorporation): 2 µg/mL (≈ 4.33 µM); MIC (S. aureus 25923; [10]): 2 µg/mL (≈ 4.33 µM)

Question: For CC(=O)NC[C@H]1CN(c2ccc(N3CCN(C(=O)c4ccoc4)CC3)c(F)c2)C(=O)O1 [Compound No. 08, (S)-N[[3-[3-Fluoro-4-[N-1[4-(3-furoyl)]piperazinyl]phenyl]2-oxo-5-oxazolidinyl]methyl]cetamide], which MIC (S. pyogenes 19615; [5]) is on record?
Answer: 1 µg/mL (≈ 2.32 µM)

Question: And the “ED50 (mg/kg body weight) PO” value (MRSA 562 [4])?
Answer: 25 mg/kg body weight

Question: And the MIC (E. faecalis 29212; [6])?
Answer: 1 µg/mL (≈ 2.32 µM)

Question: What about the MIC (VRE 6A; VRE 6A, agar incorporation) of the same molecule?
Answer: 1 µg/mL (≈ 2.32 µM)

Question: And the MIC (S. pneum AB 34; [7])?
Answer: 4 µg/mL (≈ 9.29 µM)

Question: What about the “Agar MIC” value [1] of the same molecule?
Answer: 1 µg/mL

Question: What about the MIC (S. pneum 6303; [8]) of the same molecule?
Answer: 2 µg/mL (≈ 4.65 µM)

Question: And the “Broth MIC +50% Sheep serum” value [2]?
Answer: 4 µg/mL

Question: And the “Broth MIC Normal MH broth” value [2]?
Answer: 2 µg/mL

Question: What about the “MIC” value (MRSA 562 [3]; MRSA 562, Table 5) of the same molecule?
Answer: 1 µg/mL (≈ 2.32 µM)

Question: And the MIC (MRSA 562 [3]; [9])?
Answer: 1 µg/mL (≈ 2.32 µM)

Question: And the MIC (MRSA 33; MRSA 33, agar incorporation)?
Answer: 1 µg/mL (≈ 2.32 µM)

Question: What about the MIC (MRSA 15187; MRSA 15187, agar incorporation) of the same molecule?
Answer: 1 µg/mL (≈ 2.32 µM)

Question: And the MIC (S. aureus 25923; [10])?
Answer: 2 µg/mL (≈ 4.65 µM)
